Results as given in ChEMBL document CHEMBL3085636, “Further optimization of plakortin pharmacophore: structurally simple 4-oxymethyl-1,2-dioxanes with promising antimalarial activity” (Eur J Med Chem, 2013).

How the values were obtained:
Plasmodium falciparum [1] = test: Antimalarial activity against chloroquine-sensitive Plasmodium falciparum D10 after 72 hrs by parasite lactate dehydrogenase assay; format: functional, organism-based; conditions: D10, 72 h
Plasmodium falciparum [2] = test: Antimalarial activity against chloroquine-resistant Plasmodium falciparum W2 after 72 hrs by parasite lactate dehydrogenase assay; format: functional, organism-based; conditions: W2, 72 h

Row | SMILES | IC50 (Plasmodium falciparum [1]) [nM] | IC50 (Plasmodium falciparum [2]) [nM]
1 | CCCC[C@@]1(C)C[C@H](COC)[C@](CCCC)(OC)OO1 | 900 | 700
2 | CCCCC1(CCCC)C[C@H](COC)[C@](C)(OC)OO1 |  | 1700
3 | CCCC[C@]1(C)C[C@H](COC)[C@](CCCC)(OC)OO1 | 800 | 500
4 | CCCCC1(CCCC)C[C@H](COC)[C@@](C)(OC)OO1 |  | 1500
5 | CCCCC1(CCCC)C[C@H](CO)[C@](CCCC)(OC)OO1 | 4000 | 1600
6 | CCCC[C@@]1(OC)OOC(C)(C)C[C@@H]1COC | 8600 | 2800
7 | CCCCC1(CCCC)C[C@H](COC)[C@](CCCC)(OC)OO1 |  | 700
8 | CCCCC1(CCCC)C[C@H](CO)[C@@](CCCC)(OC)OO1 | 2400 | 1000
9 | CCCC[C@]1(OC)OOC(C)(C)C[C@@H]1COC | > 30000 | > 30000
10 | CCCC[C@]1(C)C[C@H](COC)[C@@](CCCC)(OC)OO1 | 4300 | 2000
11 | CCCC[C@@]1(OC)OOC(C)(C)C[C@@H]1CO | 17200 | 7300
12 | CCCCC1(CCCC)C[C@H](COC)[C@@](CCCC)(OC)OO1 |  | 1000
13 | CCCC[C@@]1(C)C[C@H](CO)[C@](CCCC)(OC)OO1 | 6000 | 2300
14 | CCCC[C@]1(C)C[C@H](CO)[C@@](CCCC)(OC)OO1 | > 30000 | 11200
15 | CCCC[C@@]1(C)C[C@H](COC)[C@@](CCCC)(OC)OO1 | 2300 | 1200
16 | COC[C@H]1CC(C)(C)OO[C@]1(C)OC | > 30000 | > 30000
17 | CCCC[C@]1(C)C[C@H](CO)[C@](CCCC)(OC)OO1 | 5400 | 1900
18 | COC[C@H]1CC(C)(C)OO[C@@]1(C)OC | > 30000 | > 30000
